Measurements taken from patent US20260242335A1, “HETEROCYCLOALKYL BETA-HYDROXY ALKYL AMINES FOR USE IN THE TREATMENT OF HYPERGLYCAEMIA AND DISORDERS CHARACTERISED BY HYPERGLYCAEMIA” (ATROGI AB, priority 2023, published 2026).
Structures can show the parent of a compound that is named as a salt.

Tests used:
[1] = tested on: L6-myotubes; test: Glucose uptake (3H-2-deoxyglucose) in differentiated L6-myotubes, compared to isoproterenol; assay type: cell-based; settings: compound at 10 μM vs isoproterenol at 10 μM, read-out: Biological example 1: glucose uptake activity compared to that of isoproterenol
In short: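 Differentiated L6 myotubes, serum-starved overnight in 0.5% fatty-acid-free BSA, were pretreated 1 h 40 min with agonist at 1×10^−5 M final, then re-dosed in glucose-free medium for 20 min. Uptake of 50 nM 3H-2-deoxyglucose over 10 min was read by scintillation counting and compared with isoproterenol.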

[2] = tested on: L6-myotubes; test: Measurement of intracellular cAMP levels (alpha screen cAMP kit) in differentiated cells, compared to isoproterenol; assay type: cell-based; settings: 0.25 h, compound at 10 μM vs isoproterenol at 10 μM, 15 min stimulation, read-out: Biological example 2: intracellular cAMP level activity compared to that of isoproterenol
In short: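 Rat L6 myoblasts differentiated to myotubes over 7 days in 2% FBS, serum-starved overnight, then stimulated 15 min with agonist at 1×10^−5 M final in HBSS with 1 mM IBMX, pH 7.4. cAMP measured by AlphaScreen after ethanol extraction and lysis; activity expressed relative to isoproterenol.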

SMILES | Emax at 10 µM [1] [%] | Emax at 10 µM [2] [%]
CNC(=O)N1CCC[C@@H](CC(C)(C)NC[C@H](O)c2cccc(F)c2)C1 [Example 9, (S)-3-(2-(((R)-2-(3-Fluorophenyl)-2-hydroxyethyl)amino)-2-methyl-propyl)-N-methylpiperidine-1-carboxamide hydrochloride] | > 75 | 25 to 50
CC(C)(C[C@@H]1CCN(C(=O)OC(C)(C)C)C1)NC[C@H](O)c1cccc(F)c1 [Example 64, tert-Butyl (S)-3-(2-(((R)-2-(3-fluorophenyl)-2-hydroxyethyl)amino)-2-methylpropyl)pyrrolidine-1-carboxylate] | 50 to 75 | > 75
CC(C)(C[C@@H]1CNC(=O)C1)NC[C@H](O)c1cncc(F)c1 [Example 74, (S)-4-(2-(((R)-2-(5-Fluoropyridin-3-yl)-2-hydroxyethyl)amino)-2-methylpropyl)pyrrolidin-2-one dihydrochloride] | > 75 | 25 to 50
CC(C)(C[C@H]1CNC(=O)C1)NC[C@H](O)c1cncc(F)c1 [Example 78, (R)-4-(2-(((R)-2-(5-Fluoropyridin-3-yl)-2-hydroxyethyl)amino)-2-methylpropyl)pyrrolidin-2-one dihydrochloride] | > 75 | < 25
CC(C)(C[C@@H]1CCC(=O)NC1)NC[C@H](O)c1cccc(F)c1 [Example 36, (S)-5-(2-(((R)-2-(3-Fluorophenyl)-2-hydroxyethyl)amino)-2-methyl-propyl)piperidin-2-one hydrochloride] | 50 to 75 | < 25
CC(=O)N1CCC(CC(C)(C)NC[C@H](O)c2cccc(F)c2)CC1 [Example 30, (R)-1-(4-(2-((2-(3-Fluorophenyl)-2-hydroxyethyl)amino)-2-methyl-propyl)piperidin-1-yl)ethan-1-one hydrochloride] | > 75 | < 25
CC(C)(CC1CCN(C(=O)C(C)(C)C)CC1)NC[C@H](O)c1cccc(F)c1 [Example 41, (R)-1-(4-(2-((2-(3-Fluorophenyl)-2-hydroxyethyl)amino)-2-methyl-propyl)piperidin-1-yl)-2,2-dimethylpropan-1-one] | 25 to 50 | < 25
CC(C)(C[C@H]1CCCN(S(C)(=O)=O)C1)NC[C@H](O)c1cncc(F)c1 [Example 27, (R)-1-(5-Fluoropyridin-3-yl)-2-((2-methyl-1-((R)-1-(methylsulfonyl)-piperidin-3-yl)propan-2-yl)amino)ethan-1-ol dihydrochloride] | 50 to 75 | < 25
CC(=O)N1CC[C@H](CC(C)(C)NC[C@H](O)c2cccc(F)c2)C1 [Example 58, 1-((R)-3-(2-(((R)-2-(3-Fluorophenyl)-2-hydroxyethyl)amino)-2-methylpropyl)pyrrolidin-1-yl)ethan-1-one] | > 75 | < 25
CC(C)(C[C@H]1CCN(C(=O)OC(C)(C)C)C1)NC[C@H](O)c1cncc(F)c1 [Example 60, tert-Butyl (R)-3-(2-(((R)-2-(5-fluoropyridin-3-yl)-2-hydroxyethyl)-amino)-2-methylpropyl)pyrrolidine-1-carboxylate] | 50 to 75 | < 25
CNC(=O)N1CCC(CC(C)(C)NC[C@H](O)c2cccc(F)c2)CC1 [Example 45, (R)-4-(2-((2-(3-Fluorophenyl)-2-hydroxyethyl)amino)-2-methyl-propyl)-N-methylpiperidine-1-carboxamide] | 50 to 75 | < 25
CN(C)C(=O)N1CCC[C@@H](CC(C)(C)NC[C@H](O)c2cccc(F)c2)C1 [Example 8, (S)-3-(2-(((R)-2-(3-Fluorophenyl)-2-hydroxyethyl)amino)-2-methyl-propyl)-N,N-dimethylpiperidine-1-carboxamide] | > 75 | < 25
CC(C)(C[C@@H]1CCCN(S(C)(=O)=O)C1)NC[C@H](O)c1cccc(C(F)(F)F)n1 [Example 23, (S)-2-((2-Methyl-1-((S)-1-(methylsulfonyl)piperidin-3-yl)propan-2-yl)-amino)-1-(6-(trifluoromethyl)pyridin-2-yl)ethan-1-ol dihydrochloride] | 50 to 75 | < 25
CC(C)(C[C@H]1CCNC(=O)C1)NC[C@H](O)c1cccc(F)c1 [Example 52, (R)-4-(2-(((R)-2-(3-Fluorophenyl)-2-hydroxyethyl)amino)-2-methyl-propyl)piperidin-2-one] | 50 to 75 | < 25
CC(C)(C[C@@H]1CCCN(C(=O)OC(C)(C)C)C1)NC[C@H](O)c1cncc(F)c1 [Example 11, tert-Butyl (S)-3-(2-(((R)-2-(5-fluoropyridin-3-yl)-2-hydroxyethyl)-amino)-2-methylpropyl)piperidine-1-carboxylate] | > 75 | > 75
CC(C)(C[C@@H]1CCCN(S(C)(=O)=O)C1)NC[C@H](O)c1cccc(F)c1 [Example 4, (R)-1-(3-Fluorophenyl)-2-((2-methyl-1-((S)-1-(methylsulfonyl)-piperidin-3-yl)propan-2-yl)amino)ethan-1-ol hydrochloride] | 50 to 75 | 25 to 50
CC(=O)N1CC[C@H](CC(C)(C)NC[C@H](O)c2cncc(F)c2)C1 [Example 62, 1-((R)-3-(2-(((R)-2-(5-Fluoropyridin-3-yl)-2-hydroxyethyl)amino)-2-methylpropyl)pyrrolidin-1-yl)ethan-1-one] | > 75 | < 25
CN(C)C(=O)N1CCC(CC(C)(C)NC[C@H](O)c2cccc(F)c2)CC1 [Example 44, (R)-4-(2-((2-(3-Fluorophenyl)-2-hydroxyethyl)amino)-2-methyl-propyl)-N,N-dimethylpiperidine-1-carboxamide hydrochloride] | > 75 | 50 to 75
CC(=O)N1CCN(CC(C)(C)NC[C@H](O)c2cccc(F)c2)CC1 [Example 86, (R)-1-(4-(2-((2-(3-Fluorophenyl)-2-hydroxyethyl)amino)-2-methyl-propyl)piperazin-1-yl)ethan-1-one dihydrochloride] | > 75 | < 25
CC(C)(CC1CCN(C(=O)C(F)(F)F)CC1)NC[C@H](O)c1cncc(F)c1 [Example 48, (R)-2,2,2-Trifluoro-1-(4-(2-((2-(5-fluoropyridin-3-yl)-2-hydroxyethyl)-amino)-2-methylpropyl)piperidin-1-yl)ethan-1-one dihydrochloride] | 50 to 75 | < 25
CC(C)(C[C@@H]1CCCOC1)NC[C@H](O)c1cccc(F)c1 [Example 84, (R)-1-(3-Fluorophenyl)-2-((2-methyl-1-((S)-tetrahydro-2H-pyran-3-yl)propan-2-yl)amino)ethan-1-ol] | > 75 | 50 to 75
CC(C)(C[C@@H]1CCC(=O)NC1)NC[C@H](O)c1cncc(F)c1 [Example 37, (S)-5-(2-(((R)-2-(5-Fluoropyridin-3-yl)-2-hydroxyethyl)amino)-2-methylpropyl)piperidin-2-one hydrochloride] | > 75 | < 25
CC(C)(C[C@@H]1CCNC1=O)NC[C@H](O)c1cccc(F)c1 [Example 77, (S)-3-(2-(((R)-2-(3-Fluorophenyl)-2-hydroxyethyl)amino)-2-methyl-propyl)pyrrolidin-2-one hydrochloride] | 50 to 75 | < 25
